Results: patent US10758466B2, “Powder-based cosmetic compositions containing pelargonic acid esters” (Novamont S.p.A., priority 2015, dated 2020)

How the values were obtained:
[1] = Pigments dispersion: wet point and flow point of ester oil; assay type: physicochemical; settings: for Fp: amount of ester oil needed to reach the flow point; for Fp / Wp: grams per 100 g of pigment; for Wp: amount of ester oil needed to reach the wet point
From the text: Black Iron Oxide particles (CI77499, commercially available as YPC335200 from Yipin) were dispersed in each of the ester oils of the present invention and in ester oil commonly used as cosmetic ingredients. Each sample of powder particles was wetted by the dropwise addition of one ester oil and then vigorously blended using a spatula until the wet point and the flow point were reached.
The wet point is defined as the minimum volume of dispersant solution to produce a soft coherent mass; the further minimum addition of dispersant solution to produce flow or falling off of the homogeneous mass from the vertical blade of a horizontally held spatula determines the flow point.
The amounts of dispersant solution (i.e. ester oil) needed to reach the wet point (Wp) and the flow point (Fp) were recorded and reported in the table below, expressed in grams per 100 g of pigment.

[2] = UV filters dispersion: dispersibility of solid UV filter in ester oils; assay type: physicochemical; set-up: key: D=homogeneous dispersion; S=sediment deposit; settings: 25° C.; for Filters dispersion t0 1%: 1% TiO2, storage 0 hours; for Filters dispersion t24 1%: 1% TiO2, storage 24 hours; for Filters dispersion t0 10%: 10% TiO2, storage 0 hours; for Filters dispersion t24 10%: 10% TiO2, storage 24 hours
Procedure: The dispersibility of a solid UV filter in different ester oils was tested using Titania (TiO2, commercially available as Titanio Biossido Anatasio from A.C.E.F.). Various ratios of solute/solvent (1% and 10% TiO2) were prepared under stiffing at 70° C. for 30 minutes. The dispersions were then observed after a storage period of 0 hours (t0) and 24 hours (t24) at ambient temperature (25° C.) to check for the formation of any sediment deposit. Results for each ester are shown in the table below (D=homogeneous dispersion; S=sediment deposit).

Structure (SMILES) | Fp [1] [g] | Wp [1] [g] | Filters dispersion t0 1% [2] | Filters dispersion t24 1% [2] | Filters dispersion t0 10% [2] | Filters dispersion t24 10% [2] | less solvent required on the final composition ([1]; from Fp close to Wp, compared with commonly used ester oils)
CC(C)CCCCCCOC(=O)CCCCCC(C)C [Isononyl Isononanoate, reference compound] | 145.00 | 50.00 | D | S | D | S | 
CCCCCCCCC(=O)OCC(COC(=O)CCCCCCCC)OC(=O)CCCCCCCC [Glycerol tripelargonate] | 100.00 | 60.00 | D | D | D | S/D | about 30%
CCCCCCCCC(=O)OCC(COC(=O)CCCCCCCC)(COC(=O)CCCCCCCC)COC(=O)CCCCCCCC [Pentaerythritol tetrapelargonate] | 132.00 | 62.00 | D | D | D | D | 
CCCCCCCCC(=O)OCC(C)(C)COC(=O)CCCCCCCC [Neopentyl glycol dipelargonate] | 166.00 | 61.00 | D | S/D | D | S/D | 
